# Tested on: BALB/c 3T3 cell line
# Assay: Balb/c 3T3 Neutral Red Uptake (NRU) cytotoxicity assay
# Format: cell-based
# Details: NRU cytotoxicity test (FIG. 8)
# Source text: FIG. 8. IICT-TA67 is not toxic. To evaluate the cytotoxicity of test chemical (IICT-TA67) BALB/c 3T3 cell line was used for Neutral Red Uptake (NRU) cytotoxicity test. The test result has been used to determine IC50 for IICT-TA67 and acute oral toxicity (LD50) in rodent was predicted.
# Basal cytotoxicity of IICT-TA67 has been performed to measure IC50 and thereafter predict in vivo acute oral LD50 values in rodent by using Halle's Registry of cytotoxicity (RC) prediction model: log (LD50)=0.435×log (IC50)+0.625 (Halle, 1998; Spielmann et al., 1999). Balb/c 3T3 Neutral Red Dye Uptake (NRU) cytotoxicity assay procedure was adopted (Liebsch & Spielmann 1995). In brief 3T3 cell were grown in 96 well microtitre plates and exposed to IICT-TA-67. After 48-hour incubation, the test material was removed and Neutral red (NR) solution was applied to the cells. The cells were incubated again, the excess NR solution was removed and finally NR was eluted from the cells. The NRU was determined by using a microtitre plate reader to measure the optical density at 540 nm of the eluted dye in 96 well plate. A calculation of cell viability expressed as NRU was made for each concentration of the test chemical by using the mean NRU of 6 replicate values per test concentration. The cell viability value was compared with the mean NRU of all vehicle control values and relative cell viability was then expressed as percent of untreated vehicle control. […] Although the percentage of viability is slightly more than 95% at 50 μg/ml of IICT-67, 30 μg/ml (% viability of cells is 98%)
row,Compound,toxicity
1,"COc1ccc(C(c2[nH]c3ccccc3c2CC(=O)O)c2[nH]c3ccccc3c2CC(=O)O)cc1Oc1nc(Nc2ccccc2)nc(Nc2ccccc2)n1 [Compound 8, 2,2′-[2,2′-3-(4,6-bis-anilino)-1,3,5-triazin-2-yl-oxy-4-methoxyphenyl]-methylene-bis-(1H-indole-3,3-diyl)-diacetic acid]",potentially non toxic

# Tested on: PDE-4
# Assay: Phosphodiesterase 4 assay ([3H]cAMP SPA), enzyme preparation from rat heart
# Format: biochemical
# Details: PDE-4 activity, dose 10 μg/ml
# Procedure: FIG. 2. […] To examine whether IICT-TA67 inhibits PDE-4 activity in vitro, enzyme preparations were incubated in the absence or presence of different concentrations (1-20 μg/ml) of IICT-TA67 and breakdown of cAMP was monitored by β counter.
# Table 1. Measurement of phosphodiesterase (PDE)-4 activity by compounds.
# Heart was excised from anesthetized rat and transfer into normal saline solution. […] The homogenate was centrifuged at 500×g for 5 minute at 4° C. Then sup was taken for further centrifuged at 40,000×g for 30 minute (ultra centrifugation). After centrifugation supernatant was collected for phosphodiesterase assay. Protein concentration was estimated and for each assay, 2.5 μg protein (PDE enzyme preparation) was used.
# Phosphodiesterase 4 assay: Phosphodiesterase 4 assay was conducted with [^3H] cAMP SPA enzyme assay (GE Amersham, UK) using 2.5 μg enzyme preparation for each well. Into each well 60 μl water, 10 μl assay buffer supplied with the kit, 10 μl compound (inhibitor), 10 μl PDE enzyme or homogenizing buffer (blank) and 10 μl radiolabel led cAMP ([^3H]cAMP, GE Amersham, UK) were added. To check activity of the enzyme without inhibitor 10 μl DMSO was added in place of inhibitor to a separate well. The reaction mixtures were incubated for 30 mi at 30° C. The reaction was stopped by adding 50 μl SPA bead supplied with the kit. It was then mixed well and allowed to stand at room temperature for 20 min. Breakdown of cAMP in each tube was monitored by β counter. The reading in each tube was obtained in counts per minute (CPM). The reading of the blank tube (without enzyme) was subtracted from each tube to normalize the counts. The enzyme activity was calculated by considering the CPM reading without any inhibitor (compound) as 100.
row,Inhibition % [%],Compound
1,44,"Clc1nc(NC2CC2)nc(NC2CC2)n1 [Compound 10, 6-Chloro-N^2,N^4-dicyclopropyl-1,3,5-triazine-2,4-diamine]"
2,69,"COc1ccc(C2CNC(=O)C2)cc1OC1CCCC1 (centres unmarked) [Rolipram, reference compound]"
3,30,"COc1cc(C=O)ccc1Oc1nc(Nc2ccccc2)nc(Nc2ccccc2)n1 [Compound 13, 4-[4,6-Bis-anilino-1,3,5-triazin-2-yl-oxy]-3-methoxy benzaldehyde]"
4,42,"COc1cc(C(c2[nH]c3ccccc3c2CC(=O)O)c2[nH]c3ccccc3c2CC(=O)O)ccc1Oc1nc(NC2CC2)nc(NC2CC2)n1 [Compound 3, 2,2′-[2,2′-4-(4,6-bis-cyclopropylamino)-1,3,5-triazin-2-yl-oxy-3-methoxyphenyl]-methylene-bis-(1H-indole-3,3-diyl)-diacetic acid]"
5,45,"COc1ccc(C(c2cc3ccccc3[nH]2)c2cc3ccccc3[nH]2)cc1Oc1nc(Nc2ccccc2)nc(Nc2ccccc2)n1 [Compound 6, 2,2′-[2,2′-3-(4,6-bis-anilino)-1,3,5-triazin-2-yl-oxy-4-methoxyphenyl]-methylene-bis-1H-indole]"
6,53,"Clc1nc(Nc2ccccc2)nc(Nc2ccccc2)n1 [Compound 11, 6-Chloro-N^2,N^4-diphenyl-1,3,5-triazine-2,4-diamine]"

# The remaining lines, values behind:
row,Compound,Inhibition % [%]
1,"COc1ccc(C(c2cc3ccccc3[nH]2)c2cc3ccccc3[nH]2)cc1Oc1nc(NC2CC2)nc(NC2CC2)n1 [Compound 5, 2,2′-[2,2′-3-(4,6-bis-cyclopropylamino)-1,3,5-triazin-2-yl-oxy-4-methoxyphenyl]-methylene-bis-1H-indole]",34
2,"COc1cc(C(c2[nH]c3ccccc3c2CC(=O)O)c2[nH]c3ccccc3c2CC(=O)O)ccc1Oc1nc(Nc2ccccc2)nc(Nc2ccccc2)n1 [Compound 4, 2,2′-[2,2′-4-(4,6-bis-anilino)-1,3,5-triazin-2-yl-oxy-3-methoxyphenyl]-methylene-bis-(1H-indole-3,3-diyl)-diacetic acid]",31
3,"COc1ccc(C(c2[nH]c3ccccc3c2CC(=O)O)c2[nH]c3ccccc3c2CC(=O)O)cc1Oc1nc(Nc2ccccc2)nc(Nc2ccccc2)n1 [Compound 8, 2,2′-[2,2′-3-(4,6-bis-anilino)-1,3,5-triazin-2-yl-oxy-4-methoxyphenyl]-methylene-bis-(1H-indole-3,3-diyl)-diacetic acid]",73
4,"COc1cc(C(c2cc3ccccc3[nH]2)c2cc3ccccc3[nH]2)ccc1Oc1nc(NC2CC2)nc(NC2CC2)n1 [Compound 1, 2,2′-[2,2′-4-(4,6-bis-cyclopropylamino)-1,3,5-triazin-2-yl-oxy-3-methoxyphenyl]-methylene-bis-1H-indole]",16
5,"COc1cc(C=O)ccc1Oc1nc(NC2CC2)nc(NC2CC2)n1 [Compound 12, 4-[4,6-Bis-cyclopropylamino-1,3,5-triazin-2-yl-oxy]-3-methoxy benzaldehyde]",29
6,"COc1cc(C(c2cc3ccccc3[nH]2)c2cc3ccccc3[nH]2)ccc1Oc1nc(Nc2ccccc2)nc(Nc2ccccc2)n1 [Compound 2, 2,2′-[2,2′-4-(4,6-bis-anilino)-1,3,5-triazin-2-yl-oxy-3-methoxyphenyl]-methylene-bis-1H-indole]",34

# Tested on: not listed separately
# Assay: Pharmacokinetic study, oral and i.v. route
# Format: in vivo, swiss mice
# Details: mouse, in vivo
# Procedure: FIG. 6. Pharmacokinetics of IICT-TA67 through oral route. FIG. 7. Pharmacokinetics of IICT-TA67 through intravenous (i.v) route in mice. IICT-TA67 (20 mg/kg) was administered orally (or 10 mg/kg by i.v. route) as a fine suspension in 1% Gum acacia. Blood samples were drawn from retro-orbital plexus at designated times in pre-labeled heparinised tubes and centrifuged (3500 rpm×10 minutes) to obtain the plasma. Blood samples were collected at 0, 5, 15 and 30 min, and 1, 2, 4, 6, 8, 16 and 24 hrs post-administration after oral/iv route. HPLC determinations were done on Shimadzu chromatograph (Model: LC-10 Atvp equipped with a diode array detector). The Molecule ICT-TA67 was determined at 276 nm using RP-18 column (5 μm×25 cm). Mobile phase consisted of acetonitrile: water (55:45) with a flow rate of 1.0 ml/min.
# Animals. Healthy swiss mice of both the sexes (25-30) were used. The animals were kept (3/cage) under controlled conditions (temp 26±2° C.; relative humidity 50±5%; 12 h light/dark cycle) and maintained on pelleted rodent diet (Ashirwad Industries Ltd. Chandigarh, India). Water was provided ad libitum. Institutional Animal Ethics committee approved the animal experiments. Animals were fasted for 16 hours before use.
# Step 1: Dosing: IICT-TA67 (20 mg/kg) was administered orally (or 10 mg/kg by i.v.route) as a fine suspension in 1% Gum acacia. Blood samples were drawn from retro-orbital plexus at designated times in pre-labeled heparinised tubes and centrifuged (3500 rpm×10 minutes) to obtain the plasma. Blood samples were collected at 0, 5, 15 and 30 min, and 1, 2, 4, 6, 8, 16 and 24 hrs post-administration after oral/iv route.
# Step 2: HPLC determinations: Aliquots of plasma were mixed with acetonitrile (1:2), vortexed for two minutes (2500 rpm) and centrifuge at 5000 rpm for 10 min. The organic layer was collected and evaporated to dryness using solvent evaporator (Model: SPD 111V, Thermo Electron Corporation, MA). The dried samples were reconstituted in mobile phase for HPLC analysis. In a similar manner samples were also prepared from aliquots of plasma collected from untreated animals which were spiked with molecule 67 (0.25 μg-10 μg/ml). […] Reproducibility of the method was defined by both intra-, and inter-day variance. The retention time of Mol. 67 was 10.688 min, at which no other interfering peak was observed. The lower limit of detection (LOD) was 11 ng/ml; limit of quantitation (LOQ) was 32 ng/ml; recovery was 90±2%.
# HPLC determinations were done on Shimadzu chromatograph (Model: LC-10 Atvp equipped with a diode array detector). Molecule 67 was determined at 276 nm using RP-18 column (5 μm×25 cm). Mobile phase consisted of acetonitrile: water (55:45) with a flow rate of 1.0 ml/min.
# Step 3: Calculating Bioavailability indices: A concentration-time curve for Molecule 67 was established and pharmacokinetic parameters AUC, Cmax, and tmax were determined by a non-compartmental analysis using TOPFIT software package. Absolute bioavailability was determined using the following formula: AUCoral×doseiv/AUCiv×Doseoral.
row,Compound,bioavailability and pharmacokinetics
1,"COc1ccc(C(c2[nH]c3ccccc3c2CC(=O)O)c2[nH]c3ccccc3c2CC(=O)O)cc1Oc1nc(Nc2ccccc2)nc(Nc2ccccc2)n1 [Compound 8, 2,2′-[2,2′-3-(4,6-bis-anilino)-1,3,5-triazin-2-yl-oxy-4-methoxyphenyl]-methylene-bis-(1H-indole-3,3-diyl)-diacetic acid]",potentially bioavailable with good pharmacokinetics

# — patent publication US9085559B2, “Triazine-aryl-bis-indoles and process for preparation thereof” (COUNCIL OF SCIENTIFIC & INDUSTRIAL RESEARCH, priority 2010, dated 2015)
